Laboratory results from article PMC11696576, “Next generation thiazolyl ketone inhibitors of cytosolic phospholipase A2 α for targeted cancer therapy” (Nature Communications, 2025).
Where “and” joins values, the source holds several entries; their conditions need not be identical. Identical values can stand only once. Like-named read-outs stand apart in the source and are kept apart here.

Test system: panel of 66 cancer cell lines
Experiment: cancer cell line screen, proliferation assay (ATPlite, 72 h)
Format: cell-based, human
Conditions: for raw signal, dose-response (Figure S7a): rep1, rep2, listed as AVX235; for IC50: Homo sapiens
From the text: Targeting specific molecular vulnerabilities in cancer is considered a key approach to reducing the adverse effects of chemotherapy. However, the events that govern the susceptibility to suppression of the cPLA2α in cancer remain largely unexplored. We therefore took the approach of screening the antiproliferative activity of AVX420 in a panel of 66 cancer cell lines (hereafter referred to as the cancer cell line screen or CCLS) to allow us to investigate molecular and genetic vulnerabilities to the drug.
Screening of compound activities in 66 cancer cell lines was carried out at the Netherlands Translation Research Center. Briefly, proliferation assays were performed 72 h after compound addition using ATPlite 1step reagent (Perkin Elmer). IC50s calculated by non-linear regression analysis were used as a measure of compound activity for investigating associations with genetic factors. A complete description of the laboratory and data analysis methods are available in the Supplementary Information file (Supplemental Methods: Cancer Cell Line Screening).
Cancer cell line screening
Cell proliferation assays
All cell lines were from the American Type Culture Collection (ATCC) Manassas, Virginia (US) and maintained under ATCC-recommended protocols and within 9 pas- […]
DMSO at -80°C until one hour before use. Cells exposed within one hour after thaw-ing of the compound stocks. Final compound concentration range in the assay was 10 […]
cated by supplier. Compounds were dissolved in 100 % DMSO and stored at room temperature. Final concentration of the reference compounds in the assay was 3.16x10-5 M to 3.16x10-9 M. The final DMSO concentration during incubation was […]
Cell lines were plated in Advanced RPMI 1640 (Gibco, ref 12633-012) cell culture medium, containing 1% Glutamax solution (Gibco, ref 35050-038), 0.4% Pen Strep solution (Gibco, ref 15140-122) and bovine serum. The cPLA2α inhibitors were tested in 0.5% bovine serum (HyClone, ref SH30072.03) with the exception of769-P, A-204, BT-549, SR, T98G, which were tested in the presence of 1.0% serum and A-704 and LNCaP FGS, which were tested in the in the presence of 10% serum. Reference com-pounds were all tested in the presence of 10% bovine serum.
Cells were dispensed in a 384-well plate, at a concentration of 200 - 3200 cells per well, depending on the cell line, in 45 μL medium. Plated cells were incubated in a humidified atmosphere of 5% CO2 at 37 °C. After 24 hours, 5 μL of compound dilu-tion was added and plates were further incubated for another 72 hours. After 72 hours, 25 μL of ATPlite 1Step™ (PerkinElmer) solution was added to each well, and subse-quently shaken for 2 minutes. After 10 minutes of incubation in the dark, the lumines-cence was recorded on an Envision multimode reader (PerkinElmer).
Cell growth control. The cellular doubling times of all cell lines are calculated from the t = 0 hours and t = 72 hours growth signals of the untreated cells. If the doubling time is out of specification (0.5 – 2.0 times deviating from historic average) the assay […]
IC50s were calculated by non-linear regression using IDBS XLfit 5. The percentage growth after 72h (%-growth) was calculated as follows: 100% x (luminescence t = 72h / luminescence untreated,t=72h). This was fitted to the 10log compound concentration (conc) by a 4-parameter logistics curve: %-growth = bottom + (top – bottom) / (1+ 10(logIC50 – conc)*hill)), where hill is the Hill-coefficient, and bottom and top the asymptotic mini-mum and maximum cell growth that the compound allows in that assay.
All analysis were performed in the statistical software package R and visualized using GraphPad Prism version 10.0 .0

- pIC50 (769P, kidney): 4,709
- pIC50 (786O, kidney): 4,868
- pIC50 (A172, central_nervous_system): 4,701
- pIC50 (A204, soft_tissue): 4,858
- pIC50 (A375, skin): 4,792
- pIC50 (A427, lung): 4,933
- pIC50 (A498, kidney): 4,604
- pIC50 (A549, lung): 4,718
- pIC50 (ACHN, kidney): 4,677
- pIC50 (AN3CA, endometrium): 4,738
- pIC50 (AU565, breast): 4,915
- pIC50 (AsPC1, pancreas): 4,828
- pIC50 (BT20, breast): 4,526
- pIC50 (BT549, breast): 4,643
- pIC50 (BxPC3, pancreas): 4,719
- pIC50 (C33A, cervix): 4,835
- pIC50 (CAL27, upper_aerodigestive_tract): 4,767
- pIC50 (COLO829, unknown): 4,775
- pIC50 (Daoy, central_nervous_system): 4,799
- pIC50 (DoTc24510, cervix): 4,777
- pIC50 (FaDu, upper_aerodigestive_tract): 4,794
- pIC50 (HCT15, large_intestine): 4,921
- pIC50 (HCT116, large_intestine): 4,798
- IC50 (769-P, read-out: IC50): 19.6 µM
- IC50 (786-0, 786-O, read-out: IC50): 13.6 µM
- IC50 (72 h, panel average, 72 h, read-out: average IC50 in the cancer cell line screen): 16.3 µM
- IC50 (A 172, A-172, read-out: IC50): 19.9 µM
- IC50 (A204, A-204, read-out: IC50): 13.9 µM
- IC50 (A388, cervix, read-out: pIC50 (converted)): 14.5 µM
- IC50 (A388, read-out: IC50): 14.5 µM
- IC50 (A498, A-498, read-out: IC50): 24.9 µM
- IC50 (A549, A-549, read-out: IC50): 19.1 µM
- IC50 (A704, A704, kidney, read-out: pIC50 (converted)): 34 µM
- IC50 (A704, A-704, read-out: IC50): > 100 µM
- IC50 (A-375, A375, read-out: IC50): 16.1 µM
- IC50 (A-427, A-427, read-out: IC50): 11.7 µM
- IC50 (ACHN, read-out: IC50): 21.1 µM
- IC50 (AN3-CA, AN3 CA, read-out: IC50): 18.3 µM
- IC50 (ASPC1, AsPC-1, read-out: IC50): 14.8 µM
- IC50 (AU565, AU-565, read-out: IC50): 12.2 µM
- IC50 (BT-20, BT-20, read-out: IC50): 29.8 µM
- IC50 (BT-549, BT-549, read-out: IC50): 22.7 µM
- IC50 (BXPC-3, BxPC-3, read-out: IC50): 19.1 µM
- IC50 (C-33-A, C-33 A, read-out: IC50): 14.6 µM
- IC50 (CAL-27, CAL 27, read-out: IC50): 17.1 µM
- IC50 (CCRF-CEM, CCRFCEM, blood, read-out: pIC50 (converted)): 11.7 µM
- IC50 (CCRF-CEM, read-out: IC50): 11.7 µM
- IC50 (COLO 205, COLO 205, read-out: IC50): 18.5 µM
- IC50 (COLO-829, COLO 829, read-out: IC50): 16.8 µM
- IC50 (DLD-1, DLD1, large_intestine, read-out: pIC50 (converted)): 13.8 µM
- IC50 (DLD-1, DLD-1, read-out: IC50): 13.8 µM
- IC50 (DU-145, DU 145, read-out: IC50): 19.3 µM
- IC50 (Daoy, read-out: IC50): 15.9 µM
- IC50 (DoTc2-4510, DoTc2 4510, read-out: IC50): 16.7 µM
- IC50 (FaDu, read-out: IC50): 16.1 µM
- IC50 (HCT-15, HCT-15, read-out: IC50): 12 µM
- IC50 (HCT-116, HCT 116, read-out: IC50): 15.9 µM
- IC50 (Hs-578T, Hs 578T, read-out: IC50): 13.7 µM
- IC50 (J82, J82, read-out: IC50): 15.8 µM
- IC50 (Jurkat E6.1, Jurkat E6.1, read-out: IC50): 12.5 µM
- IC50 (K562, K-562, read-out: IC50): 10.9 µM
- IC50 (KU812, KU812, read-out: IC50): 10.4 µM
- IC50 (LNCaP, LNCaP FGC, read-out: IC50): > 100 µM
- IC50 (LS174T, LS 174T, read-out: IC50): 13 µM
- IC50 (LoVo, read-out: IC50): 19.3 µM
- IC50 (MCF7, MCF7, read-out: IC50): 12.7 µM
- IC50 (MG-63, MG63, bone, read-out: pIC50 (converted)): 20.4 µM
- IC50 (MG-63, MG-63, read-out: IC50): 20.4 µM
- IC50 (MIA PaCa-2, MIA PaCa-2, read-out: IC50): 10.9 µM
- IC50 (MOLT-4, MOLT-4, read-out: IC50): 12 µM
- IC50 (MeWo, read-out: IC50): 17.3 µM
- IC50 (NCI-H82, NCI-H82, read-out: IC50): 13.7 µM
- IC50 (NCI-H460, NCI-H460, read-out: IC50): 22.5 µM
- IC50 (OVCAR-3, OVCAR-3, read-out: IC50): 14.3 µM
- IC50 (PA-1, PA-1, read-out: IC50): 11.6 µM
- IC50 (RKO, read-out: IC50): 8.87 µM
- IC50 (RPMI-7951, RPMI-7951, read-out: IC50): 16.2 µM
- IC50 (RT-4, RT4, read-out: IC50): 16.5 µM
- IC50 (SHP77, SHP-77, read-out: IC50): 11.9 µM
- IC50 (SJCRH30, read-out: IC50): 18.4 µM
SMILES: CCCCCCCCc1ccc(OCC(=O)c2nc(C(=O)OC)cs2)cc1 [GK470]
- average panel 10logIC50 (10log of IC50 in nM, panel average): 4.20
- raw signal, dose-response (Figure S7a) (CCRF-CEM, Log10 M -4): 6827 and 7267
- raw signal, dose-response (Figure S7a) (CCRF-CEM, Log10 M -6): 6001427 and 6137653
- raw signal, dose-response (Figure S7a) (CCRF-CEM, Log10 M -6.5): 6250880 and 6122947
- raw signal, dose-response (Figure S7a) (CCRF-CEM, Log10 M -7): 6208933 and 6388787
- raw signal, dose-response (Figure S7a) (CCRF-CEM, Log10 M -7.5): 5662213 and 5677453
- raw signal, dose-response (Figure S7a) (CCRF-CEM, Log10 M -8): 5954640 and 6349707
